“And” between values parts separate entries of the source, which are not always exact repeats. Equal entries are not always repeated.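 Dose response: 5 concentrations. Exposure: 48 h. Format: 96-well plates. Endpoint: linear interpolation; highest concentration if not reached. Here, GI50 denotes the concentration required for 50% inhibition of growth. TGI is the concentration that stops growth completely.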
Columns and labels:
Assay in all cases: DTP human tumour cell line panel, 48 h
HT29 colon = tested on: HT29 colon
A549 NSCLC = tested on: A549 NSCLC
MCF7 breast = tested on: MCF7 breast
M19-MEL melanoma = tested on: M19-MEL melanoma
SK-MEL-5 melanoma = tested on: SK-MEL-5 melanoma
MOLT-4 leukemia = tested on: MOLT-4 leukemia
UACC-62 melanoma = tested on: UACC-62 melanoma
SNB-75 CNS = tested on: SNB-75 CNS
M14 melanoma = tested on: M14 melanoma
OVCAR-8 ovarian = tested on: OVCAR-8 ovarian

Structure (SMILES) | GI50 (HT29 colon) | TGI (HT29 colon) | GI50 (A549 NSCLC) | GI50 (MCF7 breast) [µM] | GI50 (M19-MEL melanoma) [µM] | TGI (M19-MEL melanoma) | GI50 (SK-MEL-5 melanoma) | GI50 (MOLT-4 leukemia) | TGI (A549 NSCLC) [µM] | TGI (MCF7 breast) [µM] | TGI (UACC-62 melanoma) [µM] | TGI (SK-MEL-5 melanoma) [µM] | TGI (SNB-75 CNS) [µM] | TGI (M14 melanoma) [µM] | TGI (MOLT-4 leukemia) [µM] | TGI (OVCAR-8 ovarian) [µM]
CC[C@@]1(O)C(=O)OCc2c1cc1n(c2=O)Cc2cc3c(CN(C)C)c(O)ccc3nc2-1 | 0.0669 µM and 0.0589 µM and 0.24 µM | 8.1 µM and 20.2 µM and 6.7 µM | 0.0545 µM and 0.08 µM | < 0.01 | 0.603 | 5.17 µM and 1.36 µM | 0.0197 µM and 0.0191 µM and 0.0448 µM | < 0.01 µM and 0.00317 µM |  |  |  |  |  |  |  | 
O=C1C(Cl)=C(N2CCN(CCOCCO)CC2)C(=O)c2ccccc21 |  | 30 µM |  |  |  | 14.6 µM |  |  | 34.2 | 14.4 | 13.7 | 28.2 | 27.7 | 22.6 | 5.99 | 28.2
O=C(CSc1nnc(Cc2ccccc2)o1)Nc1ccc(Cl)cc1[N+](=O)[O-] |  | 49.2 µM |  |  |  | 34.8 µM |  |  | 35.6 |  | 30.5 | 30.9 | 39.5 | 32.9 | > 100 | > 100
C=CCOC1CC(n2cnc3c(N)ncnc32)OC1CO (stereo unspecified) |  | > 100 µM |  |  |  | > 100 µM |  |  | > 100 |  | > 100 | > 100 | > 100 | > 100 | > 100 | > 100
